Assay results as given in PMC8765783, “Identification of the potential active site of the septal peptidoglycan polymerase FtsW” (PLoS Genetics, 2022).
pKd: −log10 of the molar value.

How the values were obtained:
Assay in all cases: fluorescence anisotropy
Format in all cases: binding
Conditions in all cases: 50 mM Hepes pH 7.5, 0.1 M NaCl, 0.005% DDM, 0.2% CHAPS, 21°C, 0.33 μM probe; labelled compound
[1] = molecular target: T1, HisFtsW-FtsI(PBP3) complex (FtsW-FtsI/PBP3, "W 3") (Escherichia coli, UniProt P0ABG4)
T1 construct: His-tagged FtsW co-expressed with untagged FtsI/PBP3 from pDML2041 in E. coli C43(DE3); DDM-solubilised membranes, HisTrap, G25 desalting; tag kept; with Peptidoglycan D,D-transpeptidase FtsI
T1 sequence (P0ABG4 1-414): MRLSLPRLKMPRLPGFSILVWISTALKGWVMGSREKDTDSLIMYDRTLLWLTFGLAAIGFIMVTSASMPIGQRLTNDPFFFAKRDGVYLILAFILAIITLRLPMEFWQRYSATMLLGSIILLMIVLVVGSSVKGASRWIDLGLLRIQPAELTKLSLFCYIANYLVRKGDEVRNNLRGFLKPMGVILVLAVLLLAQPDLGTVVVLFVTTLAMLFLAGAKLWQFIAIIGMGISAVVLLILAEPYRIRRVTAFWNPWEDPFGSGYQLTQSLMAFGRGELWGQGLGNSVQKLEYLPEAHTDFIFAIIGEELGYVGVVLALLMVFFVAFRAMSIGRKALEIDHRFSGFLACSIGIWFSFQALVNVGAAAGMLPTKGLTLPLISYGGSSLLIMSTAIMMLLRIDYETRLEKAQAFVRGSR
T1 sequence (P0AD68 1-577 partner): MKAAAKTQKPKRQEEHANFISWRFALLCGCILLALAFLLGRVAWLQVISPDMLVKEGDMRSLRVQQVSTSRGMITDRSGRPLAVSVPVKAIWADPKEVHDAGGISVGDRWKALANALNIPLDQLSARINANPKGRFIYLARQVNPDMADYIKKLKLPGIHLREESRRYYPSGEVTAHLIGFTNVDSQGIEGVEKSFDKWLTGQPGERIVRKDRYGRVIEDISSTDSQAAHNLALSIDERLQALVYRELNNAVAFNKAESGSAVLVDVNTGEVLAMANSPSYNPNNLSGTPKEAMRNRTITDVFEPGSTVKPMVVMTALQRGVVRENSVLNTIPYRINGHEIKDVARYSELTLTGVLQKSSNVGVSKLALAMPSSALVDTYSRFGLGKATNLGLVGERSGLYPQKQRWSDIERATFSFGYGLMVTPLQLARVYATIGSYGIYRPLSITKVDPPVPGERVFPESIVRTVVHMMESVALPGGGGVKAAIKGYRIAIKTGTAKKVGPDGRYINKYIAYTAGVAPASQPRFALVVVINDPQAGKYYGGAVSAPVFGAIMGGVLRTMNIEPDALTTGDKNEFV

[2] = molecular target: T2, HisFtsW-FtsI(PBP3) complex (FtsW-FtsI/PBP3, "W 3") (Escherichia coli, UniProt P0ABG4, A135T)
T2 construct: His-tagged FtsW co-expressed with untagged FtsI/PBP3 from pDML2041 in E. coli C43(DE3); DDM-solubilised membranes, HisTrap, G25 desalting; tag kept; with Peptidoglycan D,D-transpeptidase FtsI
T2 sequence (P0ABG4 1-414 A135T): T1 sequence (P0ABG4 1-414)
T2 sequence (P0AD68 1-577 partner): T1 sequence (P0AD68 1-577 partner)
Source text: (§1) fluorescence anisotropy on HisFtsW-FtsI(PBP3) complex (FtsW-FtsI/PBP3, "W 3")

[3] = molecular target: T3, HisFtsW-FtsI(PBP3) complex (FtsW-FtsI/PBP3, "W 3") (Escherichia coli, UniProt P0ABG4, D297A)
T3 construct: His-tagged FtsW co-expressed with untagged FtsI/PBP3 from pDML2041 in E. coli C43(DE3); DDM-solubilised membranes, HisTrap, G25 desalting; tag kept; with Peptidoglycan D,D-transpeptidase FtsI
T3 sequence (P0ABG4 1-414 D297A): T1 sequence (P0ABG4 1-414)
T3 sequence (P0AD68 1-577 partner): T1 sequence (P0AD68 1-577 partner)
Source text: as §1

[4] = molecular target: T4, HisFtsW-FtsI(PBP3) complex (FtsW-FtsI/PBP3, "W 3") (Escherichia coli, UniProt P0ABG4, G199A)
T4 construct: His-tagged FtsW co-expressed with untagged FtsI/PBP3 from pDML2041 in E. coli C43(DE3); DDM-solubilised membranes, HisTrap, G25 desalting; tag kept; with Peptidoglycan D,D-transpeptidase FtsI
T4 sequence (P0ABG4 1-414 G199A): T1 sequence (P0ABG4 1-414)
T4 sequence (P0AD68 1-577 partner): T1 sequence (P0AD68 1-577 partner)
Source text: as §1

[5] = molecular target: T5, HisFtsW-FtsI(PBP3) complex (FtsW-FtsI/PBP3, "W 3") (Escherichia coli, UniProt P0ABG4, G371S)
T5 construct: His-tagged FtsW co-expressed with untagged FtsI/PBP3 from pDML2041 in E. coli C43(DE3); DDM-solubilised membranes, HisTrap, G25 desalting; tag kept; with Peptidoglycan D,D-transpeptidase FtsI
T5 sequence (P0ABG4 1-414 G371S): T1 sequence (P0ABG4 1-414)
T5 sequence (P0AD68 1-577 partner): T1 sequence (P0AD68 1-577 partner)
Source text: as §1

[6] = molecular target: T6, HisFtsW-FtsI(PBP3) complex (FtsW-FtsI/PBP3, "W 3") (Escherichia coli, UniProt P0ABG4, G381D)
T6 construct: His-tagged FtsW co-expressed with untagged FtsI/PBP3 from pDML2041 in E. coli C43(DE3); DDM-solubilised membranes, HisTrap, G25 desalting; tag kept; with Peptidoglycan D,D-transpeptidase FtsI
T6 sequence (P0ABG4 1-414 G381D): T1 sequence (P0ABG4 1-414)
T6 sequence (P0AD68 1-577 partner): T1 sequence (P0AD68 1-577 partner)
Source text: as §1

[7] = molecular target: T7, HisFtsW-FtsI(PBP3) complex (FtsW-FtsI/PBP3, "W 3") (Escherichia coli, UniProt P0ABG4, P196T)
T7 construct: His-tagged FtsW co-expressed with untagged FtsI/PBP3 from pDML2041 in E. coli C43(DE3); DDM-solubilised membranes, HisTrap, G25 desalting; tag kept; with Peptidoglycan D,D-transpeptidase FtsI
T7 sequence (P0ABG4 1-414 P196T): T1 sequence (P0ABG4 1-414)
T7 sequence (P0AD68 1-577 partner): T1 sequence (P0AD68 1-577 partner)
Source text: as §1

[8] = molecular target: T8, HisFtsW-FtsI(PBP3) complex (FtsW-FtsI/PBP3, "W 3") (Escherichia coli, UniProt P0ABG4, Q147E)
T8 construct: His-tagged FtsW co-expressed with untagged FtsI/PBP3 from pDML2041 in E. coli C43(DE3); DDM-solubilised membranes, HisTrap, G25 desalting; tag kept; with Peptidoglycan D,D-transpeptidase FtsI
T8 sequence (P0ABG4 1-414 Q147E): T1 sequence (P0ABG4 1-414)
T8 sequence (P0AD68 1-577 partner): T1 sequence (P0AD68 1-577 partner)
Source text: as §1

[9] = molecular target: T9, HisFtsW-FtsI(PBP3) complex (FtsW-FtsI/PBP3, "W 3") (Escherichia coli, UniProt P0ABG4, R243L)
T9 construct: His-tagged FtsW co-expressed with untagged FtsI/PBP3 from pDML2041 in E. coli C43(DE3); DDM-solubilised membranes, HisTrap, G25 desalting; tag kept; with Peptidoglycan D,D-transpeptidase FtsI
T9 sequence (P0ABG4 1-414 R243L): T1 sequence (P0ABG4 1-414)
T9 sequence (P0AD68 1-577 partner): T1 sequence (P0AD68 1-577 partner)
Source text: as §1

[10] = molecular target: T10, HisFtsW-FtsI(PBP3) complex (FtsW-FtsI/PBP3, "W 3") (Escherichia coli, UniProt P0ABG4, W138A)
T10 construct: His-tagged FtsW co-expressed with untagged FtsI/PBP3 from pDML2041 in E. coli C43(DE3); DDM-solubilised membranes, HisTrap, G25 desalting; tag kept; with Peptidoglycan D,D-transpeptidase FtsI
T10 sequence (P0ABG4 1-414 W138A): T1 sequence (P0ABG4 1-414)
T10 sequence (P0AD68 1-577 partner): T1 sequence (P0AD68 1-577 partner)
Source text: as §1

[11] = molecular target: T11, HisFtsW-FtsI(PBP3) complex (FtsW-FtsI/PBP3, "W 3") (Escherichia coli, UniProt P0ABG4, Y242H)
T11 construct: His-tagged FtsW co-expressed with untagged FtsI/PBP3 from pDML2041 in E. coli C43(DE3); DDM-solubilised membranes, HisTrap, G25 desalting; tag kept; with Peptidoglycan D,D-transpeptidase FtsI
T11 sequence (P0ABG4 1-414 Y242H): T1 sequence (P0ABG4 1-414)
T11 sequence (P0AD68 1-577 partner): T1 sequence (P0AD68 1-577 partner)
Source text: as §1

## CC(=O)N[C@H]1[C@H](O[C@H]2[C@H](O[C@H](C)C(=O)N[C@@H](C)C(=O)N[C@H](CCC(=O)N[C@@H](CCCCNc3ccc([N+](=O)[O-])c4nonc34)C(=O)N[C@H](C)C(=O)N[C@H](C)C(=O)O)C(=O)O)[C@@H](NC(C)=O)[C@@H](OP(=O)(O)OP(=O)(O)OC/C=C(/C)CC/C=C(/C)CC/C=C(/C)CC/C=C(/C)CC/C=C(/C)CC/C=C(/C)CC/C=C(/C)CC/C=C(/C)CC/C=C(\C)CC/C=C(\C)CCC=C(C)C)O[C@@H]2CO)O[C@H](CO)[C@@H](O)[C@@H]1O [NBD-lipid II]
[1]
  pKd: 6.89
[2]
  pKd: 7.22
[3]
  pKd: 7.05
[4]
  pKd: 6.96
[5]
  pKd: 7.30
[6]
  pKd: 7.00
[7]
  pKd: 7.22
[8]
  pKd: 7.15
[9]
  pKd: 7.15
[10]
  pKd: 7.22
[11]
  pKd: 7.40
